Here are results for one substance from patent publication US20160312284A1, “SELECT SINGLE NUCLEOTIDE POLYMORPHISMS PREDICTIVE OF RESPONSE TO GLATIRAMER ACETATE” (Teva Pharmaceutical Industries, Ltd., priority 2015, published 2016).

The subject of one assay is RRMS subjects. Conditions: largest controlled study, GA 20 mg; cited from earlier work.
Assay [1] has as its system Relapsing-Remitting Multiple Sclerosis (RR-MS) patients. Kind of assay: FORTE phase 3 trial (two doses of GA): response categories and ARR by predictive model. The assay is classed as in vivo, human. The source says:
As used herein, “FORTE” is a phase 3 clinical trial entitled “Clinical Trial Comparing Treatment of Relapsing-Remitting Multiple Sclerosis (RR-MS) With Two Doses of Glatiramer Acetate (GA).” The FORTE trial has the ClinicalTrials.gov Identifier NCT00337779 and additional information, including study results can be found at clinicaltrials.gov/ct2/show/NCT00337779.
(§1) Response definitions were received from patients from two large glatiramer acetate clinical trial cohorts (GALA, FORTE) and patients were categorized as responder, non-responder, extreme-responder, or extreme non-responder according to the criteria set forth in Table 1.
(§2) To identify genetic markers associated with high response to Copaxone® comprising the following characteristics: (1) high response as measured by ARR reductions, (2) predictive, not prognostic, markers: associated with response only in Copaxone®-treated patients, and not in the placebo group, (3) markers that are confirmed in an independent cohort, and (4) a subset of GALA and FORTE studies' patients with clarly defined response phenotypes (high responders versus low responders) (FIG. 6) Patient DNA samples were genotyped for 4.3 million genetic variants (Illumina HumanOmni5 array).
(§3) Regression analysis was applied, with the threshold for distinguishing responders from non-responders was selected by analysis of receiver-operator curves. Intermediate responders were genotyped by either Illumina 5M array or focused taqman-based SNP genotyping and Sanger sequencing.

The test system of assay [2] is Subjects With Relapsing-Remitting Multiple Sclerosis (RRMS). The experiment in a line: GALA phase 3 trial (GA 40 mg three times a week vs placebo): response categories and ARR by predictive model. In kind it is in vivo, human. As for the experimental part: As used herein, “GALA” is a phase 3 clinical trial entitled “A Study in Subjects With Relapsing-Remitting Multiple Sclerosis (RRMS) to Assess the Efficacy, Safety and Tolerability of Glatiramer Acetate (GA) Injection 40 mg Administered Three Times a Week Compared to Placebo (GALA).” The GALA trial has the ClinicalTrials.gov Identifier NCT01067521, and additional information about the trial can be found at clinicaltrials.gov/ct2/show/NCT01067521.
as §1, §2, §3

The test system of assay [3] is genotyped patients of the GALA and FORTE cohorts. The experiment in a line: Combined GALA and FORTE cohorts: patient responses predicted by preliminary predictive model (model 3, threshold 0.71). In kind it is in vivo, human. How it is done:
A predictive model was generated based on the 11 SNPs shown in tables 32 and 33 and the two Clinical co-variants shown in table 23.
Receiver Operating Characteristic (ROC) analysis was performed using the actual value (case or control) and predicted value for each sample from the multi-marker regression model (FIG. 1). For these preliminary analyses, two risk groups were defined using the predicted values from the multi-marker regression model. The predictive threshold value was set at 0.71 (termed “model 3”) based on a variety of factors after consultation with the Teva team and Teva MS clinical experts.
Ultimately, a threshold that best differentiated between responders and non-responders (minimum positive predictive value of 90% or higher) (FIG. 2), while maximizing the number of predicted responders (predicted responders >60%) (FIG. 3) was selected. This threshold also coincided with the lowest p-value of all the thresholds examined (Chi square p-value 6.1×10^−46, odds ratio 19.9) (FIG. 4). The positive predictive value (% of all predicted responders to be true responders) was 91.1%, sensitivity (% of all true responders detected) was 80.2%; specificity (% of all true non-responders classified as non-responders) was 83.1%; and the negative predictive value ([…]) was 65.9%.
While 40% of patients were classified as “predicted non-responders” with an overall response rate of 34% (FIG. 5).

[4] abbreviates: change in ARR < -1 and new T2 lesions = 0 and relapse free.
The mark [5] stands for this setting: change in ARR >= 0 and new T2 lesions >= 1.
Setting [6] is: change in ARR from previous 2 years < -1.
Setting [7] is: change in ARR from previous 2 years >= 0.

As for Glatiramer acetate, in the assay with RRMS subjects, the “relapse rate reduced vs placebo” value is 32%. Further, the “Extreme Responders (% of cohort)” value in assay [1] (setting [4]) is recorded as “(16%)”; in assay [2] (setting [4]), “(8.5%)”. Further, the entries for the “Extreme Non-Responders (% of cohort)” value in assay [1] (setting [5]) and in assay [2] (setting [5]) were “(6%)” and “(10%)”, respectively. For the same substance, the “Responders (% of cohort)” value in assay [1] (setting [6]) is “(36%)”; in assay [2] (setting [6]) it was “(26%)”. Also, the “Non-Responders (% of cohort)” value in assay [1] (setting [7]) was “(11%)”; in assay [2] (setting [7]) it was “(16%)”. Besides, the “improvement in response rate, predicted responders vs overall cohort” value in assay [3] (68% vs. 91%) is given as 34%. In assay [3] (P<10^-40), the “improved response rate, predicted responders vs predicted non-responders” value is 2.7 fold. Moreover, the “ARR reduced (improved), predicted responders vs overall patient cohort” value in assay [3] (human, in vivo) is reported as 60%. Moreover, the “nrelapse reduced (improved), predicted responders vs overall patient cohort” value in assay [3] (human, in vivo) is on record as 58%. Also, the “EDSS progression delayed (improved), predicted responders vs predicted non-responders” value in assay [3] (p-value 0.00095) is 72%. Also, the “T1 enhancing lesions at month 12 reduced (improved), predicted responders vs predicted non-responders” value in assay [3] (p-value 0.043) was 47%. Also, the “reduced EDSS progression, predicted responders vs overall cohort” value in assay [3] (p-value 0.08) was 49%. Also, the “ARR reduced (improved), predicted responders vs predicted non-responders” value in assay [3] (p-value 2.2×10^-25) was 80%. The “nrelapse reduced (improved), predicted responders vs predicted non-responders” value in assay [3] (p-value 7.70×10^-32) is listed as 78%. The overall response rate in assay [3] (predicted non-responders (40% of patients)) is on record as 34%.
